# Structures can show the parent of a compound that is named as a salt.
# Biological target: T1, recombinant human GSK3β (Homo sapiens, UniProt P49841)
# T1 construct: purchased Dundee University, UK
# Assay: GSK3β Scintillation Proximity Assay (ATP competition)
# Type: biochemical
# Conditions: SPA, 1 μM ATP, 1 μM biotinylated peptide substrate; Ki calculated with Km of ATP 20 μM
# Protocol: Determination of ATP Competition in Scintillation Proximit), GSK3β Assay.
# GSK3β Scintillation Proximity Assay.
# The competition experiments were carried out in duplicate with 10 different concentrations of the inhibitors in clear-bottom microtiter plates (Wallac, Finland). A biotinylated peptide substrate, Biotin-Ala-Ala-Glu-Glu-Leu-Asp-Ser-Arg-Ala-Gly-Ser(PO3H2)-Pro-Gln-Leu (AstraZeneca, Lund), was added at a final concentration of 1 μM in an assay buffer containing 1 mU recombinant human GSK3β (Dundee University, UK), 12 mM morpholinepropanesulfonic acid (MOPS), pH 7.0, 0.3 mM EDTA, 0.01% β-mercaptorethanol, 0.004% Brij 35 (a […] detergent), 0.5% glycerol and 0.5 μg BSA/25 μl. The reaction was initiated by the addition of 0.04 μCi [γ-^33P]ATP (Amersham, UK) and unlabelled ATP at a final concentration of 1 μM and assay volume of 25 μl. After incubation for 20 minutes at room temperature, each reaction was terminated by the addition of 25 μl stop solution containing 5 mM EDTA, 50 μM ATP, 0.1% Triton X-100 and 0.25 mg streptavidin coated Scintillation Proximity Assay (SPA) beads (Amersham, UK). After 6 hours the radioactivity was determined in a liquid scintillation counter (1450 MicroBeta Trilux, Wallac). The inhibition curves were analysed by non-linear regression using GraphPad Prism, USA. The Km value of ATP for GSK3β, used to calculate the inhibition constants (Ki) of the various compounds, was 20 μM.
# T1 sequence (P49841 whole entry): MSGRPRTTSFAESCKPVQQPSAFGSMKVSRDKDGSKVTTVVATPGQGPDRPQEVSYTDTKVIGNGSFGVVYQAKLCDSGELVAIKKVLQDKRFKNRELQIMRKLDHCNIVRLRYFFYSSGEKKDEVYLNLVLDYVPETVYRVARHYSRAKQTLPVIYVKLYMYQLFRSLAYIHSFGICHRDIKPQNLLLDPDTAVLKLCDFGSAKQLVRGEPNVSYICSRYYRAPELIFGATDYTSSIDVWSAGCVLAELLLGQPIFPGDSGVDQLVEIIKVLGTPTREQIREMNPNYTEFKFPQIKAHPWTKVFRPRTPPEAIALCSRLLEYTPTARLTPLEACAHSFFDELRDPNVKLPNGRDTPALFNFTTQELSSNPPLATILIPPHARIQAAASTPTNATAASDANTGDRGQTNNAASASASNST
row,Ki [nM],Compound
1,779,"COCCCNC(=O)c1c(F)cnc2[nH]c(-c3ccc(CN4CCOCC4)cc3)nc12 [Example 21, 6-Fluoro-N-(3-methoxypropyl)-2-[4-(morpholin-4-ylmethyl)phenyl]-3H-imidazo[4,5-b]pyridine-7-carboxamide hydrochloride]"
2,1400,"COCCCNC(=O)c1c(Cl)cnc2[nH]c(-c3ccc(CN4CCOCC4)cc3)nc12 [Example 14, 6-Chloro-N-(3-methoxypropyl)-2-[4-(morpholin-4-ylmethyl)phenyl]-3H-imidazo[4,5-b]pyridine-7-carboxamide]"
3,390,"COCCCNC(=O)c1c(Br)cnc2[nH]c(-c3ccc(CN4CCOCC4)cc3)nc12 [Example 13, 6-Bromo-S-(3-methoxypropyl)-2-[4-(morpholin-4-ylmethyl)phenyl]-3H-imidazo[4,5-b]pyridine-7-carboxamide]"
